Data from patent US9695155B2, “Herbicidal substituted pyrimidinyloxy benzene compounds” (E. I. DU PONT DE NEMOURS AND COMPANY, priority 2013, dated 2017).

Key:
[1] = system: dayflower; experiment: Test E postemergence; assay type: in vivo, Commelina virginica
Procedure, shortened: (§1)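 Compound in a non-phytotoxic solvent mixture with surfactant was applied preemergence to seeds in silt loam soil, or postemergence to plants 2 to 18 cm tall grown in peat-based potting medium. Plants were kept in a greenhouse for 14 to 21 days, then rated visually against untreated controls on a 0 (no effect) to 100 (complete control) scale.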

[2] = system: cocklebur; experiment: Test E preemergence; assay type: in vivo, Xanthium strumarium; conditions: 16 g ai/ha, scale 0 to 100 (0 no effect, 100 complete control)
Procedure, shortened: as §1

[3] = system: arrowleaf sida; experiment: Test E postemergence; assay type: in vivo, Sida rhombifolia
Excerpt: Seeds of plant species selected from corn (Zea mays), soybean (Glycine max), velvetleaf (Abutilon theophrasti), lambsquarters (Chenopodium album), wild poinsettia (Euphorbia heterophylla), palmer pigweed (Amaranthus palmeri), waterhemp (common waterhemp, Amaranthus rudis), surinam grass (Brachiaria decumbens), large (Lg) crabgrass (Digitaria sanguinalis), Brazilian crabgrass (Digitaria horizontalis), fall panicum (Panicum dichotomiflorum), giant foxtail (Setaria faberii), green foxtail (Setaria viridis), goosegrass (Eleusine indica), johnsongrass (Sorghum halepense), ragweed (common ragweed, Ambrosia elatior), barnyardgrass (Echinochloa crus-galli), sandbur (southern sandbur, Cenchrus echinatus), arrowleaf sida (Sida rhombifolia), Italian ryegrass (Lolium multiflorum), dayflower (Virginia (VA) dayflower, Commelina virginica), field bindweed (Convolvulus arvensis), morningglory (Ipomoea coccinea), nightshade (eastern black nightshade, Solanum ptycanthum), kochia (Kochia scoparia), yellow nutsedge (Cyperus esculentus), cocklebur (common cocklebur, Xanthium strumarium), smartweed (ladysthumb smartweed, and hairy beggarticks (Bidens pilosa), were planted into a silt loam soil and treated preemergence with test chemicals formulated in a non-phytotoxic solvent mixture which included a surfactant.
At the same time, plants from these crop and weed species and also horseweed (Canada horseweed, Conyza canadensis), waterhemp_RES1, (ALS & Triazine resistant common waterhemp, Amaranthus rudis), and waterhemp_RES2, (ALS & HPPD resistant common waterhemp, Amaranthus rudis) were planted in pots containing Redi-Earth® planting medium (Scotts Company, 14111 Scottslawn Road, Marysville, Ohio 43041) comprising spaghnum peat moss, vermiculite, wetting agent and starter nutrients were treated with postemergence applications of test chemicals formulated in the same manner. Plants ranged in height from 2 to 18 cm for postemergence treatments (1- to 4-leaf stage). Treated plants and controls were maintained in a greenhouse for 14 to 21 days, after which time all species were compared to controls and visually evaluated. Plant response ratings, summarized in Table E, are based on a scale of 0 to 100 where 0 is no effect and 100 is complete control. A dash (-) response means no test result.

[4] = system: fall panicum; experiment: Test E postemergence; assay type: in vivo, Panicum dichotomiflorum
Procedure, shortened: as §1

[5] = Postemergence, 31 g ai/ha, scale 0 to 100
[6] = Postemergence, 62 g ai/ha, scale 0 to 100
[7] = Postemergence, 125 g ai/ha, scale 0 to 100
[8] = Postemergence, 250 g ai/ha, scale 0 to 100
[9] = postemergence, 16 g ai/ha, scale 0 to 100, 0 no effect, 100 complete control

FC(F)(F)c1cnn(-c2ccccc2Oc2ncc(Cl)cn2)c1 [Compound 16]
Plant response rating, Dayflower, VA [1, 5]: 10 | Plant response rating, Dayflower, VA [1, 6]: 15 | Plant response rating, Dayflower, VA [1, 7]: 30 | Plant response rating, Dayflower, VA [1, 8]: 40 | Plant response rating, Dayflower, VA [1, 9]: 0 | Cocklebur plant response rating [2]: 0 | Plant response rating, Arrowleaf Sida [3, 5]: 70 | Plant response rating, Arrowleaf Sida [3, 6]: 75 | Plant response rating, Arrowleaf Sida [3, 7]: 80 | Plant response rating, Arrowleaf Sida [3, 8]: 90 | Plant response rating, Arrowleaf Sida [3, 9]: 50 | Plant response rating, Panicum, Fall [4, 5]: 0 | Plant response rating, Panicum, Fall [4, 6]: 10 | Plant response rating, Panicum, Fall [4, 7]: 20 | Plant response rating, Panicum, Fall [4, 8]: 25 | Plant response rating, Panicum, Fall [4, 9]: 0
